Assay results reported in paper PMC5584945, “Evaluation of robenidine analog NCL195 as a novel broad-spectrum antibacterial agent” (PLoS ONE, 2017).
Values after ≈ are worked out from the molar mass of the structure shown. Read-outs that look alike come from different tables or passages of the source.

Assays:
S. pneumoniae = experiment: MIC, broth micro-dilution (CLSI); assay type: cell-based, Streptococcus pneumoniae; details: for MIC / MIC50 / MIC90: Streptococcus pneumoniae
S. pneumoniae D39 = experiment: Membrane potential, DiOC2(3) fluorescence; assay type: cell-based, Streptococcus pneumoniae; details: 16 μg/ml, pre-incubated 5 min; versus untreated and ampicillin
Experimental: (§1) To further examine the mechanism underlying the perturbation of the cell membrane of S. pneumoniae or S. aureus by the NCL compounds, the membrane potential of the cells was measured by fluorescence spectrometry using (DiOC2(3), essentially as described previously. Briefly, […] cells from an overnight HBA plate were grown in Todd-Hewitt broth supplemented with 1% yeast extract (THY) at 37°C, 5% CO2 until A600 nm = 0.5. […] The cuvette was then placed in a LS 55 Fluorescence Spectrometer (PerkinElmer) set at Ex. 488 nm/Em. 620 nm, with excitation and emission slit widths at 5 nm and 7 nm, respectively). […] All assays were performed at least twice.

S. aureus ATCC49775 = experiment: Membrane potential, DiOC2(3) fluorescence; assay type: cell-based, Staphylococcus aureus; details: 16 μg/ml, pre-incubated 5 min; versus untreated and ampicillin
Experimental: as §1

[1] = Microsomal metabolic stability; assay type: in vitro ADME; details: for microsomal CLint at 0.4 μg/ml / half-life at 0.4 μg/ml: liver microsomes, pH 7.4; for microsomal CLint at 0.4 μg/ml: read-out: CLINT; for Predicted EH: hepatic extraction ratio; for Predicted CLblood: microsome-predicted; for half-life at 0.4 μg/ml: 0.4 μg/ml compound, 0.4 mg/ml protein, NADPH
Experimental: The metabolic stability assay was performed by incubating 0.4 μg/ml of each test compound with human and mouse liver microsomes (Xenotech, Lot# 1210057 and 1310211, respectively) suspended in 0.1 M pH 7.4 phosphate buffer at 37°C and 0.4 mg/ml protein concentration. The metabolic reaction was initiated by the addition of an NADPH-regenerating system (i.e. NADPH is the cofactor required for CYP450-mediated metabolism) and quenched at various time points over a 60 min incubation period by the addition of acetonitrile containing diazepam as internal standard. Control samples (containing no NADPH) were included (and quenched at 2, 30 and 60 min) to monitor for potential degradation in the absence of cofactor. Test compound concentration vs time data were fitted to an exponential decay function to determine the first-order rate constant for substrate depletion. This was used to calculate a degradation half-life (T1/2), in vitro intrinsic clearance (CLINT), microsome-predicted blood clearance (CLblood) and a microsome-predicted hepatic extraction ratio (EH) according to the in vitro half-life method of Obach[53].

human red blood cells = experiment: Haemolysis assay; assay type: cell-based; details: 1 h, 37°C; highest concentration used 128 μg/ml
Experimental: This was performed using fresh donor human red blood cells (RBCs), essentially as described previously. Fresh RBCs were washed in PBS three times at 500 × g for 5 min, and then resuspended 1% (w/v) in PBS. […] Thereafter, 198 μL of the 1% RBC solution was added into each well, and the mixture incubated for 1 h at 37°C, with shaking at 100 rpm. Quadruplicate wells containing either 1% Triton X100, or PBS only, served as controls. After incubation, the trays were centrifuged at 1,000 × g for 3 min and 100 μl of supernatant from each well transferred into a new 96-well tray. Absorbance was measured at A450 nm on a Multiskan Ascent 354 Spectrophotometer (Labsystems) and plotted against each dilution. Haemolytic titer was determined as the reciprocal of the dilution at which 50% of erythrocytes were lysed at A450 nm. The experiment was performed twice.

MDBK = experiment: In vitro cytotoxicity, WST-1; assay type: cell-based, bovine; details: Bos taurus, 24 h exposure, read-out: IC50 values ± SEM
From the text: In order to ensure minimal off target mammalian cell cytotoxicity, we assayed NCL812, NCL195 and NCL219 for in vitro cytotoxicity using a panel of adherent mammalian cell lines: Caco-2 (human colorectal adenocarcinoma cell line), HEL 299 (non-cancerous human lung fibroblast cell line), Hep G2 (human hepatocellular carcinoma cell line), MDBK (normal bovine kidney cell line) and MCF7 (human mammary gland adenocarcinoma cell line). Cell lines were maintained in Dulbecco’s Modified Eagle’s Medium (DMEM; […] After 24 h incubation, media was removed, washed once with medium without antibiotics and fresh medium supplemented with 10% (vol/vol) FBS was added. […] Following exposure for 24 h, WST-1 reagent was added to each well at a final concentration of 10%. […] The IC50 value for each compound against each cell line was determined via non-linear regression (three parameters) using GraphPad Prism v6 software. The robustness of assays was confirmed with selected cell lines (Hep G2 and MDBK) seeded onto a 96–well Microwell Nunclon Delta Surface plate (Thermo Scientific Nunc; Cat No: 136101) at 5 × 10^4 cells per well.

Q: For `C/C(=N\NC(=N)N/N=C(\C)c1ccc(C(C)(C)C)cc1)c1ccc(C(C)(C)C)cc1` [NCL219, (E)-N'-((E)-1-(4-(tert-butyl)phenyl)ethylidene)-2-(1-(4-(tert-butyl)phenyl)ethylidene)hydrazine-1-carboximidhydrazide], which MIC range (S. pneumoniae; 21 isolates) is on record?
A: 1 to 8 µg/mL

Q: And the MIC range (S. pneumoniae; S1 Table isolates, 5% FBS + 3% washed RBC)?
A: 1 to 8 µg/mL

Q: What about the MIC range (S. pneumoniae; S1 Table isolates, 10% FBS + 3% washed RBC) of the same compound?
A: 1 to 8 µg/mL

Q: What about the MIC (S. pneumoniae; A66.1 (serotype 3), 5% FBS) of the same compound?
A: 4 µg/mL (≈ 9.86 µM)

Q: And the MIC (S. pneumoniae; A66.1 (serotype 3), 10% FBS)?
A: 4 µg/mL (≈ 9.86 µM)

Q: What about the MIC (S. pneumoniae; ATCC6303, ATCC 6303 (serotype 3), 5% FBS + 3% washed RBC) of the same compound?
A: 1 µg/mL

Q: What about the MIC (S. pneumoniae; ATCC6303, ATCC 6303 (serotype 3), 10% FBS + 3% washed RBC) of the same compound?
A: 1 µg/mL

Q: And the MIC (S. pneumoniae; D39/D39LUX (serotype 2), 5% FBS)?
A: 4 µg/mL (≈ 9.86 µM)

Q: What about the MIC (S. pneumoniae; D39/D39LUX (serotype 2), 10% FBS) of the same compound?
A: 4 µg/mL (≈ 9.86 µM)

Q: What about the MIC (S. pneumoniae; L82016 (serotype 6B), 5% FBS) of the same compound?
A: 2 µg/mL (≈ 4.93 µM)

Q: And the MIC (S. pneumoniae; L82016 (serotype 6B), 10% FBS)?
A: 2 µg/mL (≈ 4.93 µM)

Q: And the MIC (S. pneumoniae; P9 (serotype 6A), 5% FBS)?
A: 4 µg/mL (≈ 9.86 µM)

Q: What about the MIC (S. pneumoniae; P9 (serotype 6A), 10% FBS) of the same compound?
A: 4 µg/mL (≈ 9.86 µM)

Q: What about the MIC (S. pneumoniae; P21 (serotype 3), 5% FBS) of the same compound?
A: 4 µg/mL (≈ 9.86 µM)

Q: What about the MIC (S. pneumoniae; P21 (serotype 3), 10% FBS) of the same compound?
A: 4 µg/mL (≈ 9.86 µM)

Q: What about the MIC50 (S. pneumoniae; S1 Table isolates, 5% FBS) of the same compound?
A: 4 µg/mL (≈ 9.86 µM)

Q: What about the MIC90 (S. pneumoniae; S1 Table isolates, 5% FBS) of the same compound?
A: 4 µg/mL (≈ 9.86 µM)

Q: What about the MIC50 (S. pneumoniae; S1 Table isolates, 10% FBS) of the same compound?
A: 4 µg/mL (≈ 9.86 µM)

Q: And the MIC90 (S. pneumoniae; S1 Table isolates, 10% FBS)?
A: 8 µg/mL (≈ 19.7 µM)

Q: What about the MIC (S. pneumoniae; TIGR4 (serotype 4), 5% FBS) of the same compound?
A: 2 µg/mL (≈ 4.93 µM)

Q: And the MIC (S. pneumoniae; TIGR4 (serotype 4), 10% FBS)?
A: 2 µg/mL (≈ 4.93 µM)

Q: What about the MIC (S. pneumoniae; WCH16 (serotype 6A), 5% FBS) of the same compound?
A: 2 µg/mL (≈ 4.93 µM)

Q: What about the MIC (S. pneumoniae; WCH16 (serotype 6A), 10% FBS) of the same compound?
A: 2 µg/mL (≈ 4.93 µM)

Q: And the MIC (S. pneumoniae; WCH43 (serotype 4), 5% FBS)?
A: 2 µg/mL (≈ 4.93 µM)

Q: What about the MIC (S. pneumoniae; WCH43 (serotype 4), 10% FBS) of the same compound?
A: 2 µg/mL (≈ 4.93 µM)

Q: What about the MIC (S. pneumoniae; WCH46 (serotype 4), 5% FBS) of the same compound?
A: 4 µg/mL (≈ 9.86 µM)

Q: And the MIC (S. pneumoniae; WCH46 (serotype 4), 10% FBS)?
A: 4 µg/mL (≈ 9.86 µM)

Q: And the MIC (S. pneumoniae; WCH57 (serotype 8), 5% FBS)?
A: 4 µg/mL (≈ 9.86 µM)

Q: What about the MIC (S. pneumoniae; WCH57 (serotype 8), 10% FBS) of the same compound?
A: 4 µg/mL (≈ 9.86 µM)

Q: And the MIC (S. pneumoniae; WCH86 (serotype 4), 5% FBS)?
A: 4 µg/mL (≈ 9.86 µM)

Q: What about the MIC (S. pneumoniae; WCH86 (serotype 4), 10% FBS) of the same compound?
A: 4 µg/mL (≈ 9.86 µM)

Q: And the MIC (S. pneumoniae; WCH89 (serotype 7), 5% FBS)?
A: 8 µg/mL (≈ 19.7 µM)

Q: What about the MIC (S. pneumoniae; WCH89 (serotype 7), 10% FBS) of the same compound?
A: 4 µg/mL (≈ 9.86 µM)

Q: What about the MIC (S. pneumoniae; WCH92 (serotype 4), 5% FBS) of the same compound?
A: 4 µg/mL (≈ 9.86 µM)

Q: What about the MIC (S. pneumoniae; WCH92 (serotype 4), 10% FBS) of the same compound?
A: 4 µg/mL (≈ 9.86 µM)

Q: What about the MIC (S. pneumoniae; WCH137 (serotype 6A), 5% FBS) of the same compound?
A: 4 µg/mL (≈ 9.86 µM)

Q: And the MIC (S. pneumoniae; WCH137 (serotype 6A), 10% FBS)?
A: 4 µg/mL (≈ 9.86 µM)

Q: And the MIC (S. pneumoniae; WCH158 (serotype 19F), 5% FBS)?
A: 8 µg/mL (≈ 19.7 µM)

Q: What about the MIC (S. pneumoniae; WCH158 (serotype 19F), 10% FBS) of the same compound?
A: 8 µg/mL (≈ 19.7 µM)

Q: What about the MIC (S. pneumoniae; WCH184 (serotype 19F), 5% FBS) of the same compound?
A: 2 µg/mL (≈ 4.93 µM)

Q: What about the MIC (S. pneumoniae; WCH184 (serotype 19F), 10% FBS) of the same compound?
A: 2 µg/mL (≈ 4.93 µM)

Q: What about the MIC (S. pneumoniae; WCH211 (serotype 11), 5% FBS) of the same compound?
A: 4 µg/mL (≈ 9.86 µM)

Q: What about the MIC (S. pneumoniae; WCH211 (serotype 11), 10% FBS) of the same compound?
A: 4 µg/mL (≈ 9.86 µM)

Q: What about the MIC (S. pneumoniae; WU2 (serotype 3), 5% FBS) of the same compound?
A: 4 µg/mL (≈ 9.86 µM)

Q: What about the MIC (S. pneumoniae; WU2 (serotype 3), 10% FBS) of the same compound?
A: 4 µg/mL (≈ 9.86 µM)

Q: And the “Effect on generated membrane potential” value (S. pneumoniae D39)?
A: large reduction in the magnitude of the generated membrane potential

Q: And the “Effect on generated membrane potential” value (S. aureus ATCC49775)?
A: large reduction in the magnitude of the generated membrane potential

Q: What about the microsomal CLint at 0.4 μg/ml ([1]; human) of the same compound?
A: 94 µL/min/mg

Q: And the “Predicted EH” value ([1]; human)?
A: 0.79

Q: And the “Predicted CLblood” value ([1]; human)?
A: 16 mL/min/kg

Q: What about the half-life at 0.4 μg/ml ([1]; human) of the same compound?
A: 18 min

Q: What about the half-life at 0.4 μg/ml ([1]; mouse) of the same compound?
A: 14 min

Q: And the microsomal CLint at 0.4 μg/ml ([1]; mouse)?
A: 121 µL/min/mg

Q: And the “Predicted EH” value ([1]; mouse)?
A: 0.72

Q: And the “Predicted CLblood” value ([1]; mouse)?
A: 87 mL/min/kg

Q: And the “50% haemolysis titre (HC50)” value (human red blood cells)?
A: 6 µg/mL

Q: And the IC50 (MDBK)?
A: 16 ± 0.2 µg/mL (≈ 39.4 µM)
